The results in this text go back to patent US11596647B2, “Administration of synergistic amounts of modified citrus pectin and honokiol to treat inflammation and anti-oxidant needs” (ECONUGENICS INC, priority 2016, dated 2023).

Each structure is given as a SMILES string.

The assay in a line: Antioxidant activity, ABTS microplate assay (Trolox standard). The note with it: FIG. 3; result in words. The format is biochemical. An excerpt:
Since antioxidants neutralize the ROS, antioxidant activity of the nutraceutical would be of importance for product development. The principle underlying the antioxidant assay is formation of a ferryl myoglobin radical from metmyoglobin and hydrogen peroxide, which oxidizes ABTS (2,2′-azino-bis(3-ethylbenzthiazoline-6-sulfonic acid) to produce radical cation, ABTS+, a soluble chromogen that is green in color and can be determined spectrophotometrically at 405 nm. Antioxidants suppress the production of the radical cation in a concentration dependent manner and the color intensity decreases proportionally. Trolox, a water soluble vitamin E analog, is used as a control antioxidant for analyzing the antioxidant activity of other nutraceuticals/compounds. Microplate assay was used for the analysis of antioxidant activity with different products according to the procedure described in the Antioxidant assay kit (Sigma-Aldrich, St. Louis, Mo.). The relative antioxidant concentration (mM equivalent of Trolox standard) was calculated from the absorbance readings.

Regarding `C=CCc1ccc(O)c(-c2ccc(O)c(CC=C)c2)c1` [H, honokiol], the “antioxidant activity (relative ranking)” value is reported as “least anti-oxidant activity”.
